Data: patent publication US5684036A, “Cytotoxic macrolides and methods of use” (Harbor Branch Oceanographic Institution, Inc., priority 1995, dated 1997)
Values after ≈ are worked out from the molar mass of the structure shown. Like-named read-outs stand apart in the source and are kept apart here.

Experiments:
Assay type in all cases: cell-based
[1] = tested on: A549 human lung carcinoma cells; assay: antiproliferative effect against A549 human lung carcinoma cells (MTT, 72 hours)
Experimental: (§1) Lasonolide A was tested for toxicity against P388 murine leukemia cells and A549 human lung carcinoma cells, and for their ability to perturb signal transduction pathways associated with activation of protein kinase C (PKC) and EL-4 cell adherence.
A. Maintenance of cell line. The P388 murine leukemia cells were obtained from Dr. J. Mayo, National Cancer Institute, Bethesda, Md. The A549 cells and EL-4.IL-2 cells (TIB) were obtained from the American Type Culture Collection, Rockville, Md. The P388 cells were maintained in Roswell Park Memorial Institute medium 1640 (RPMI-1640) supplemented with 10% horse serum and cultured in plastic tissue culture flasks and kept in an incubator at 37° C. in humidified air containing 5% CO2. The A549 cells were similarly maintained in RPMI-1640 but supplemented with 10% fetal bovine serum. […]
(§2) To quantitate the effects of Lasonolide A or its analogs on cell proliferation, 75 μl warm growth medium containing 5 mg/ml MTT was added to each well. […] To spectrophotometrically quantitate formation of reduced formazan, plates were centrifuged (900 g, 5 minutes), culture fluids were removed by aspiration, and 200 μl of acidified isopropanol (2 ml concentrated HCl/L isopropanol) added per well. The absorbance of the resulting solutions was measured at 570 nm with a plate reader (MR700 Microplate Reader, Dynatech Laboratories, Chantilly, Va.). […]

[2] = tested on: EL-4 cell adherence (protein kinase C); assay: EL-4 adherence assay (PKC-associated, with or without PMA); parameters: key to EL-4 Adherence: Inh: inhibition; details: for IC50: Mus musculus, EL4
Experimental: as §1
(§3) A. Maintenance of cell line. The P388 murine leukemia cells were obtained from Dr. J. Mayo, National Cancer Institute, Bethesda, Md. The A549 cells and EL-4.IL-2 cells (TIB) were obtained from the American Type Culture Collection, Rockville, Md. The P388 cells were maintained in Roswell Park Memorial Institute medium 1640 (RPMI-1640) supplemented with 10% horse serum and cultured in plastic tissue culture flasks and kept in an incubator at 37° C. in humidified air containing 5% CO2. The A549 cells were similarly maintained in RPMI-1640 but supplemented with 10% fetal bovine serum. Antibiotic-free stock cultures of P388 and A549 cells were subcultured to 10^5 cells/mi by dilutions in fresh growth medium at 2 to 5 day intervals. The EL-4 cells were similarly maintained but supplemented with 10% v/v heat-inactivated fetal calf serum, 100 U/ml penicillin, 100 μg/ml streptomycin, 6/ μg/ml L-glutamine, and 5×10^-3 M 2-mercaptoethanol (TCM) (Grand Island Biologicals Co., Grand Island, N.Y.).
Cells were passaged every 3-4 days. Viability was determined by Trypan blue exclusion and always exceeded 80%. For the adherence assay, cells were utilized within 15 passages of frozen stock cultures. Phorbol-12-myristate-13-acetate (PMA), and 4α-phorbol-12-myristate-13-acetate (4α-PMA) were obtained from LC Services Corporation (Woburn, Mass.). Stock solutions of PMA and 4α-PMA were prepared in DMSO and were stored at -70° C. prior to use.
To assess the effect of the subject compound on EL-4 cells, EL-4 cells (2.5×10^5 /well) were cultured in 96-well, flat-bottomed microtiter test plates at 37° C. with the sponge metabolites in triplicate concentrations in the presence (Plate #1) or absence (Plate #2) of PMA (16 nM final concentration). […] Controls consisted of cells incubated alone (negative control) and cells incubated with PMA (positive control). An additional control plate (Plate #3), consisting of EL-4.1IL-2 cells and identical dilutions of compounds in the absence of PMA served as a cytotoxicity plate and was not processed for adherence as described below, but used to monitor the potential cytotoxic effect of compounds for EL-4.1IL2 cells. Incubation time was 1 hour at 37° C. Following the incubation period, Plates #1 and #2 were processed as follows: the contents of each well were removed by flicking the plates into a catch tray and placing the plates inverted onto a paper towel in order to drain and blot the remaining draining wells. To each well, a volume of 100 μl of TCM was added at room temperature and the plates placed on a rotating platform shaker (Mini-Orbital Shaker, BELLCO Biotechnology, Vineland, N.J.) at setting 5 for 4 minutes. The plates were then rotated 180° and subjected to an additional 4 minutes of shaking. The plates were removed and their contents again removed as described, blotted, TCM added to each well, and the plates placed on the rotating shaker. This process was repeated for two additional wash cycles.
Following the removal of well contents, a volume of 200 μl of TCM and 75 of MTT solution (2 mg/ml in TCM) was added to each well of all plates. Plates were incubated at 37° C. for an additional 4 hours. Following incubation, the contents of Plates #1 and #2 were again removed by flicking the plate into the sink and the plates blotted onto paper towels. Plate #3 was centrifuged and likewise blotted. A volume of 200 μl of iPrOH was then added to each well of all plates in order to dissolve the resulting formazan crystals. The plates were read at 570 nm using a plate reader (Microplate Autoreader, Model EL-311, BIO-TEK Instruments, Inc., Winooski, Vt.). The absorbances for each set of triplicate wells were averaged and the standard error determined. […]

tumor cell = assay: inhibition of tumor cell growth (general statement); details: in words
[3] = tested on: P388 murine leukemia cells; assay: antiproliferative effect against P388 murine leukemia cells (MTT, 48 hour exposure); details: for IC50: Mus musculus, P388
Experimental: as §1, §3
B. Procedure. […]
as §2

`C=C(CCC(C)C)COC(=O)C(O)C/C=C/CC1OC2/C=C\C/C=C/C(C)=C\C3OC(C/C=C/C=C/C(=O)OC(C2)C1(C)CO)CC(O)C3C` (stereo not shown) [Lasonolide A] gave an IC50 ([1]; Table 4, MTT, 72 hours, read-out: A549 IC50) of 0.04 µg/mL (≈ 0.0574 µM), an IC50 ([1]; read-out: IC50 against cultured human lung carcinoma cells (A549)) of 0.04 µg/mL (≈ 0.0574 µM) and an IC50 ([2]; Table 4, Assay # 38, read-out: EL-4 Adherence IC50) of 0.019 µg/mL (≈ 0.0273 µM). For the same compound, the IC50 ([2]; unit inferred, read-out: IC50 by EL-4 Adherence) was 0.019 µg/mL (≈ 0.0273 µM), the “EL-4 Adherence” value ([2]; Table 4, 3.125 μg/ml) was “Inh” and the “EL-4 Adherence” value ([2]; Table 4, 6.25 μg/ml) was “Inh”. The “EL-4 Adherence” value ([2]; Table 4, 12.5 μg/ml) was “Inh”, the “EL-4 Adherence” value ([2]; Table 4, 25 μg/ml) was “Inh” and the “Inhibition using the EL-4 Adherence assay” value ([2]; in words) was “strong”. For the same compound, the “inhibition of tumor cell growth” value (tumor cell) was “inhibit tumor cell growth”, the IC50 ([3]; Table 4, MTT, 48 hours, read-out: P388 IC50) was 0.002 µg/mL (≈ 0.00287 µM) and the IC50 ([3]; read-out: IC50 against mouse leukemia cells) was < 0.01 µg/mL. The “inhibitory properties against mouse leukemia cells” value ([3]; in words) was “strong inhibitory properties”.
